{"source": "patent US20110207807A1", "about": "“NEW USE FOR HOMOISOFLAVONE OR A SALT THEREOF” (Catholic University Industry Academy Cooperation Foundation, priority 2008, published 2011)", "key": {"Hairless mice": {"system": "Hairless mice", "experiment": "Ear edema transiently induced by croton oil in animal model", "format": "in vivo, mouse", "conditions": "1 μg/10 μL topical 1 h before 1.6% croton oil, 6 hours after croton oil (FIG. 10b)", "method": "Hairless mice were subdivided into a non-treated group (treated with acetone only, not with croton oil), a control group (treated with 1.6% croton oil) and a test group (treated with 1 μg/10 μL homoisoflavanone and 1.6% croton oil), and the effect on ear edema induced by croton oil was investigated.\nOne hour before treating with 1.6% croton oil, 1 μg/10 μL homoisoflavanone was applied on the front and rear parts of the ear, 5 μL each. Then, 6 hours after treating with croton oil, ear thickness was measured."}, "leukotriene B4": {"system": "leukotriene B4", "experiment": "Release of leukotriene B4 induced by PMA and A23187 in HMC-1 (enzyme immunoassay)", "format": "cell-based, human", "from_the_text": "Phorbol 12-myristate 13-acetate and A23187 lead to degranulation of human mast cells (HMC), causing the mast cells to release not only their histamine or serotonin but also newly produced inflammatory factors such as pro-inflammatory cytokines, prostaglandins and leukotrienes. It was investigated whether homoisoflavanone has anti-inflammatory effect in mast cells as in Examples 4 and 5. In order to investigate the effect of homoisoflavanone on the release of leukotriene induced by phorbol 12-myristate 13-acetate and A23187 in HMC-1, 1×10^6 HMC-1 cells were inoculated on a 100-mm culture dish and cultured in Iscove's modified Dulbecco's medium (IMDM, GIBCO) containing 10% FBS for 48 hours. Then, after treating with homoisoflavanone at 2 μg/mL or with mizolastine at 10 μg/mL for comparison for 1 hour, the cells were treated with 50 nM phorbol 12-myristate 13-acetate and 1 μM A23187 to induce release of leukotriene, and then further cultured for 21 hours. Then, the supernatant was collected and the quantity of released leukotriene B4 and C4 was measured using a leukotriene B4, C4 enzyme immunoassay kit (Sapphire Bioscience, Australia)."}, "5-LOX": {"system": "5-LOX", "experiment": "5-LOX translocation to nuclear membrane induced by PMA and A23187 in HMC-1 (Western blot)", "format": "cell-based, human", "conditions": "HMC-1, 2 μg/mL, 50 nM PMA + 1 μM A23187, 5 hours (FIG. 7b)", "method": "(§1) In order to investigate the effect of homoisoflavanone on the migration of 5-LOX from the cytoplasm toward the nuclear membrane induced by phorbol 12-myristate 13-acetate and A23187 in human mast cells, 1×10^6 HMC-1 cells were inoculated on a 100-mm culture dish and cultured in IMDM containing 10% FBS for 48 hours. Then, after treating with homoisoflavanone at 2 μg/mL, the cells were treated with 50 nM phorbol 12-myristate 13-acetate and 1 μM A23187 to induce migration of 5-LOX to the nuclear membrane, and then further cultured for 5 hours.\nThen, in order to measure the migration of 5-LOX to the nuclear membrane, nuclear membrane proteins were isolated first. The cells of each test group were lysed with a buffer containing 10 mM HEPES/KOH, 0.1 mM EDTA, 10% NP-40, 10 mM KCl, 1 mM DTT, 0.5 mM PMSF and a protease inhibitor cocktail on ice for 10 minutes. After centrifugation, the supernatant (cytoplasmic proteins) was separated from the pellets (nuclear membrane proteins). The cytoplasmic proteins were kept at −80° C. and the pellets were lysed with a buffer containing 10 mM HEPES/KOH, 0.1 mM EDTA, 10% NP-40, 300 mM NaCl, 1 mM DTT, 0.5 mM PMSF and a protease inhibitor cocktail by shaking on ice for 30 minutes. Then, after centrifugation, the supernatant (nuclear proteins) was separated. […]"}, "IL-8": {"system": "IL-8", "experiment": "IL-8 mRNA expression induced by PMA and A23187 in HMC-1 (real-time PCR)", "format": "cell-based, human", "conditions": "HMC-1, 2 μg/mL, 50 nM PMA + 1 μM A23187, 5 hours (FIG. 6d)", "method": "as §1, with “release” for “migration”, “pro-inflammatory cytokines” for “5-LOX from the cytoplasm toward the nuclear membrane”, “HMC-1, 5×10^5” for “human mast cells, 1×10^6”, “60-mm” for “100-mm”, “pro-inflammatory cytokines,” for “5-LOX to the nuclear membrane,”\nAfter extracting RNA from the cells of each test group using TRIzol, cDNA was prepared by carrying out PCR using the RNA as a template. Then, the mRNA expression of IL-6 and IL-8 was measured through real-time PCR using the cDNA as template and using commercially available IL-6 and IL-8 primers. The expression level of the pro-inflammatory cytokines was compared relative to the non-treated group."}, "BALE/c mice": {"system": "BALE/c mice", "experiment": "Ear edema induced by UV radiation in animal model", "format": "in vivo, mouse", "conditions": "UV 7.5 kJ/m^2, 72 hours after UV (FIG. 10a)", "method": "BALE/c mice were subdivided into a non-treated group (treated with acetone only without UV radiation), a control group (irradiated with UV at 7.5 kJ/m^2) and a test group (treated with 0.6 or 1 μg/10 μL homoisoflavanone and irradiated with UV at 7.5 kJ/m^2). Then, the effect on ear edema induced by UV radiation was investigated.\nOne hour before irradiating UV at 7.5 kJ/m^2, 1 μg/10 μL homoisoflavanone was applied on the front and rear parts of the ear, 5 μL each. Then, 72 hours after UV radiation, ear thickness was measured."}}}
{"smiles": "COc1ccc(CC2COc3cc(O)cc(O)c3C2=O)cc1O", "note": "(stereo not shown) [homoisoflavanone]", "values": [{"measurement": "decrease in ear thickness", "setting": "Hairless mice", "result": 63, "unit": "%"}, {"measurement": "leukotriene B4 release when treated alone, versus non-treated group", "setting": "leukotriene B4; HMC-1, homoisoflavanone 2 μg/mL or mizolastine 10 μg/mL alone, without PMA/A23187 (FIG. 6a)", "result": "no appreciable difference"}, {"measurement": "inhibition of release of leukotriene B4", "setting": "leukotriene B4; HMC-1, homoisoflavanone 2 μg/mL or mizolastine 10 μg/mL, 50 nM PMA + 1 μM A23187, 21 hours (FIG. 6a)", "result": 70, "unit": "%"}, {"measurement": "migration of 5-LOX toward the nuclear membrane", "setting": "5-LOX", "result": "inhibited"}, {"measurement": "inhibition of release (mRNA expression) of IL-8", "setting": "IL-8", "result": 50, "unit": "%"}, {"measurement": "decrease in ear thickness", "setting": "BALE/c mice; 0.6 μg/ear topical", "result": 44, "unit": "%"}, {"measurement": "decrease in ear thickness", "setting": "BALE/c mice; 1 μg/ear topical", "result": 52, "unit": "%"}]}
